The IC50 is the concentration at which inhibition is half-maximal.

Test [1] has as its system guinea pig platelet aggregation. Nature of the test: Inhibitory action on guinea pig platelet aggregation (ADP-stimulated PRP). Format: cell-based. The following applies: Cavia porcellus, ADP final concentration 1 μM, in vitro, read-out: Inhibitory effect on platelet aggregation in vitro (IC50) guinea pig. The method, then:
TEST EXAMPLE 1 [I] Inhibitory action on guinea pig platelet aggregation
Blood was collected in 3.15% sodium citrate (1 ml for 9 ml of blood) by cardiac puncture from male guinea pig. The blood was centrifuged at 1000 g for 3 to 5 seconds at room temperature to obtain platelet rich plasma (PRP). The PRP was further centrifuged at 1000 g for 10 minutes to obtain platelet poor plasma (PPP). The number of platelets was measured using an automatic blood cell counter (Sysmex E2500, Toaiyou-densi). The platelet density of PRP was adjusted to 400,000/μl with PPP. Platelet aggregation was measured using an 8-channel aggregometer (NBS HEMA TRACER VI Niko Bioscience Inc.). The PRP (250 μl ) was preincubated at 37° C. for 2 minutes. and then incubated for 2 minutes. with 25 μl of physiological saline or various concentrations of test drugs followed by stimulation with ADP (final concentration: 1 μM). By comparing the maximum aggregation rates of the control and those of test drugs, the inhibitory rates were determined. The results are shown in [Table 1]-[Table 3].

The next test concerns the target T1, GPIIb/IIIa (Homo sapiens, UniProt P05106+P08514).
T1 construct: Purification of GPIIb/IIIa from HEL Cells; endogenous in cells; host or cells: HEL cells (HEL 92.1.7; ATCC TIB180), human erythroleukemia; GPIIb/IIIa solubilized in Triton X-100, purified and adsorbed on microtiter plates
Nature of the test: Inhibition of fibrinogen binding to GPIIb/IIIa. The following applies: purified GPIIb/IIIa from HEL cells, biotinylated human fibrinogen 1 nM. The method, then: (1) Cultibation of Cells Derived from Human Erythroleukemia (Hereinafter Referred to as HEL Cells)
HEL cells (HEL 92. 1. 7; ATCC No. TIB180) were purchased from ATCC (Rockville, Md., U.S.A.). The cells were grown in RPMI medium containing 40 mM N-2-hydroxyethylpiperazin-N'-2-ethanesulfonic acid (hereinafter referred to as HEPES) (pH 7.0), 100 μg/ml of Kanamycin and 10% FCS (GIBCO Laboratories, Grand Island, N.Y., U.S.A.). Cultivation was conducted at 37° C in the presence of 5% CO2.
(2) Purification of GPIIb/IIIa from HEL Cells
Purification of GPIIb/IIIa was performed using the following modification of the method of L. A. Fitzgerald et al. [J. Biol. Chem., 262, 3936 (1987)]. The purification was conducted at room temperature unless specifically mentioned. From 7 L of the culture broth on 7th day of the cultibation (floating cells), the cells were collected by centrifugation (1,000×g, 10 minutes, 4° C.), which were washed with 20 mM Tris-HCl(pH 7.5) containing 1 mM EDTA and 150 mM NaCl. The cells were suspended in 80 ml of a solubilized buffer [20 mM Tris-HCl, 150 mM NaCl, 1% Triton X-100, 1 mM MgCl2, 1 mM CaCl2, 0.1 mM (p-amidinophenyl)methanesulfonyl fluoride (hereinafter referred to as APMSF), 10 nM leupeptin, 0.02% NaN3, pH 7.4)].
The cell suspension was gently mixed for 30 minutes at 4° C. to solubilize GPIIb/IIIa. The suspension was subjected to centrigugation (100,000×g, one hour) at 4° C. to remove cell debris to obtain a cell-extraction solution (60 ml). […] The fraction which passed through the column was charged on the ConA-Sepharose column (Pharmacia LKB, .phi. 1.0×15 cm, 20 ml/hr) to allow GPIIb/IIIa to be adsorbed thereon, then GPIIb/IIIa was eluted with column buffer solution containing 0.5 M methyl α-D-mannopyranoside. The eluate thus obtained was allowed to pass through the DEAE-Toyopearl 650 M column (Tosoh, .phi. 1.6×10.5 cm, 20 ml/hr) equilibrated with the same column buffer to remove contaminating proteins.
(3) Biotinylation of Human Fibrinogen
Biotinylation of human fibrinogen was performed by the following procedure [I. F. Charo et al., J. Biol. Chem., 266, 1415 (1991)]. Human fibrinogen (Kabi Vitrum AB, Stockholm, Sweden) was dissolved in PBS so as to make its concentration 5 mg/ml. The solution was dialyzed overnight at 4° C. against 1 L of 0.1 M NaHCO3 -0.1 M NaCl (pH 8.2). Insolubles were then removed by centrifugation (100,000×g, 30 minutes), and the solution was diluted with the same buffer to the protein concentration of 1 mg/ml. To thus-diluted solution was added powdery sulfo-N-hydroxysuccinimidobiotin (Pierce Chemical Co., Rockford, Ill., U.S.A.) so as to make its final concentration 0.2 mg/ml and gently mixed to perform biotinylate fibrinogen. The resultant was subjected to dialysis against 50 mM Tris-HCl (pH 7.4) - 100 mM NaCl-0.05% NaN3. The dialysate was distributed and stored at 4° C.
(4) Inhibition Assay for Fibrinogen Binding to GPIIb/IIIa
This experiment was performed using a modification of the method described in the above-mentioned I. F. Charo et al. report. The purified GPIIb/IIIa was diluted with the buffer A (20 mM Tris-HCl, 150 mM NaCl, 1 mM CaCl2, 0.02% NaN3, pH 7.4) to a concentration of 1 μg/ml. The diluted solution was added to 96-well microtiter plates (MaxiSorp; Nunc, Denmark) at 100 μl per well, which were left standing at 4° C. overnight to allow GPIIb/IIIa to be adsorbed on the microplates. The plate was aspirated, and then 150 μl of the buffer B (35 mg/ml BSA, 50 mM Tris-HCl, 100 mM NaCl, 2 mM CaCl2, 0.02%, NaN3, pH 7.4) was added to the plate, and blocking was performed at 30° C. for 2 hours. The plate was washed twice with 250 μl each of the buffer C (1 mg/ml BSA, 50mM Tris-HCl, 100 mM NaCl, 2 mM CaCl2, pH 7.4).

Test [2] relates to human platelet aggregation. In words: Inhibitory action on human platelet aggregation (ADP-stimulated PRP). The following applies: ADP final concentration 3 μM, in vitro, read-out: Inhibitory effect on platelet aggregation in vitro (IC50) man. It is filed as cell-based. The procedure: [II] Inhibitory action on human platelet aggregation
Human blood was collected in 3.8% sodium citrate (1 ml for 9 ml of blood) by venipuncture from healthy male volunteers. The blood was centrifuged at 1000 g for 3 to 5 seconds at room temperature to obtain platelet rich plasma (PRP). The PRP was further centrifuged at 1000 g for 10 minutes to obtain platelet poor plasma (PPP). The number of platelets was measured using an automatic blood cell counter (Sysmex E2500, Toaiyou-densi). The platelet density of PRP was adjusted to 300,000/μl with PPP. Platelet aggregation was measured using an 8-channel aggregometer (NBS HEMA TRACER VI Niko Bioscience Inc.). The PRP (250 μl) was preincubated at 37° C. for 2 minutes. and then incubated for 2 minutes. with 25 μl of physiological saline or various concentrations of test drugs followed by stimulation with ADP (final concentration: 3 μM). By comparing the maximum aggregation rates of the control and those of test drugs, the inhibitory rates were determined. The results are shown in [Table 1]-[Table 3].

T1 sequence (P08514 32-887 limits assumed): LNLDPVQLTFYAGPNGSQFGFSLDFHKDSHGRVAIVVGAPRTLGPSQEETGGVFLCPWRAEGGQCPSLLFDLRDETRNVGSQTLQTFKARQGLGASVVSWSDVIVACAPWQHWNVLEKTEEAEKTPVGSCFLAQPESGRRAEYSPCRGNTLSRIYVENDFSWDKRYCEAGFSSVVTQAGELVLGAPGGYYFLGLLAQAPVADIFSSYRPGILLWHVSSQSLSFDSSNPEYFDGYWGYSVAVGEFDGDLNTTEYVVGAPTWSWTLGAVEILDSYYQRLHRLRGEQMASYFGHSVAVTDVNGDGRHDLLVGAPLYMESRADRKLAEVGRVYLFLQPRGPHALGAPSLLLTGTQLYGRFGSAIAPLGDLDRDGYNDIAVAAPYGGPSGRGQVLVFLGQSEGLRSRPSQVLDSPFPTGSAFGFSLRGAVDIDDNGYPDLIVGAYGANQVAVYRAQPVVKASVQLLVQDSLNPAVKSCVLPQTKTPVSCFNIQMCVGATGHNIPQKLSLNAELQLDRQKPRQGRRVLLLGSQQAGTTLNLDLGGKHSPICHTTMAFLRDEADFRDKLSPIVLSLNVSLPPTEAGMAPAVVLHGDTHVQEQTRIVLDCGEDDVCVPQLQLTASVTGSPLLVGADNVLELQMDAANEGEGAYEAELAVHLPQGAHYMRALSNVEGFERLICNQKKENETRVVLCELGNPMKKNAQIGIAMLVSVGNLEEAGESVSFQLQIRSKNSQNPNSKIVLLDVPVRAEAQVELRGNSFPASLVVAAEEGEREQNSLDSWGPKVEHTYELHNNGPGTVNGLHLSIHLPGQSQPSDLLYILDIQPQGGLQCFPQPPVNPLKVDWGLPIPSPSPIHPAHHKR
T1 sequence (P08514 891-1039 limits assumed): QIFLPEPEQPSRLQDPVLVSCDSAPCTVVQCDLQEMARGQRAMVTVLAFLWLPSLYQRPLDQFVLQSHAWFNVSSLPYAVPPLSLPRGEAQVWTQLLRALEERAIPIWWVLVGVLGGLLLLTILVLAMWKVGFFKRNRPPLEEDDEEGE
T1 sequence (P05106 27-788): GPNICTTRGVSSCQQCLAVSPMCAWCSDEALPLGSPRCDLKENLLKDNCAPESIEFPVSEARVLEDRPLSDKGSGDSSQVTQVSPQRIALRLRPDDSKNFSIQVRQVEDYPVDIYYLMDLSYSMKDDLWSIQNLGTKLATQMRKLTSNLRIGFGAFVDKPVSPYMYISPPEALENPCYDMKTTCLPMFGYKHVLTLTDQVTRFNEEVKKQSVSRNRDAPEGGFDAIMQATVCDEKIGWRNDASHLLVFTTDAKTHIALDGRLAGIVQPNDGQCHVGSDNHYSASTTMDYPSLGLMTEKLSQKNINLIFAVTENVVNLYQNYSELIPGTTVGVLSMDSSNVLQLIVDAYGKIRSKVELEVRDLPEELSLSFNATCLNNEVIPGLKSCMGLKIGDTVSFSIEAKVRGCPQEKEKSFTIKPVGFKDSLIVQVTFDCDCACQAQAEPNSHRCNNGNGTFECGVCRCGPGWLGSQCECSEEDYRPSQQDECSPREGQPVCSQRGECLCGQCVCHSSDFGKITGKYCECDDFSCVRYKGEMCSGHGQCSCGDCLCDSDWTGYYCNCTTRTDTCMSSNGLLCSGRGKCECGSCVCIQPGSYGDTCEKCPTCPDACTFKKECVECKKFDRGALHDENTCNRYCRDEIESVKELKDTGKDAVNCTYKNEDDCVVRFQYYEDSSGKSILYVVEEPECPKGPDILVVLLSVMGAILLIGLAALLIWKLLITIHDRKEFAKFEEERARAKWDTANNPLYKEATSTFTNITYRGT

On to `N=C(N)NC[C@H]1CC[C@H](C(=O)NCC(=O)N2CCN(CC(=O)O)C(=O)[C@@H]2CC(=O)O)CC1` [compound 5], for which the results for the IC50 (in test [1]; on GPIIb/IIIa; in test [2]) were 3800 nM, 20 nM and 1100 nM, respectively.
On GPIIb/IIIa, `N=C(N)NCCCCC(=O)NCC(=O)N1CCN(CC(=O)O)C(=O)[C@@H]1CC(=O)O` [compound 6] registered an IC50 of 46 nM.
For `N=C(N)NCc1ccc(C(=O)NCC(=O)N2CCN(CC(=O)O)C(=O)[C@@H]2CC(=O)O)cc1` [compound 8], the IC50 was found to be 1300 nM in test [1], 18 nM at GPIIb/IIIa and 660 nM in test [2].
In turn, `N=C(N)NCc1cccc(C(=O)NCC(=O)N2CCN(CC(=O)O)C(=O)[C@@H]2CC(=O)O)c1` [compound 9] returned a 50% inhibitory concentration (IC50) at GPIIb/IIIa of 73 nM.
Turning to `N=C(N)Nc1ccc(C(=O)NCC(=O)N2CCN(CC(=O)O)C(=O)[C@@H]2CC(=O)O)cc1` [compound 10], the IC50 turned out to be 340 nM in test [1], 4.8 nM on GPIIb/IIIa and 260 nM in test [2].
Regarding `CN(CC(=O)N1CCN(CC(=O)O)C(=O)[C@@H]1CC(=O)O)C(=O)[C@H]1CC[C@H](CNC(=N)N)CC1` [compound 12], the IC50 in test [1] stood at 1100 nM; on GPIIb/IIIa, 10 nM; in test [2] it was 700 nM.
As for `N=C(N)NC[C@H]1CC[C@H](C(=O)NCC(=O)N2CCN(CC(=O)O)C(=O)[C@@H]2Cc2ccccc2)CC1` [compound 16], the IC50 in test [1] worked out at 4600 nM; at GPIIb/IIIa, 32 nM; in test [2], 990 nM.
Consider `N=C(N)NC[C@H]1CC[C@H](C(=O)NCC(=O)N2CCN(CC(=O)O)C(=O)[C@@H]2CC(N)=O)CC1` [compound 22], for which the IC50 in test [1] amounted to 4400 nM; at GPIIb/IIIa it was 23 nM; in test [2], 720 nM.
As for `N=C(N)NC[C@H]1CC[C@H](C(=O)NCC(=O)N2CCN(CC(=O)O)C(=O)[C@@H]2CCC(=O)O)CC1` [compound 32], the IC50 was found to be 3100 nM in test [1], 15 nM on GPIIb/IIIa and 960 nM in test [2].
As for `N=C(N)NC[C@H]1CC[C@H](C(=O)NCC(=O)N2CCN(CC(=O)O)C(=O)C2)CC1` [compound 35], the IC50 amounted to 5200 nM in test [1] and 1100 nM in test [2].
`N=C(N)NC[C@H]1CC[C@H](C(=O)N[C@@H](Cc2ccccc2)C(=O)N2CCN(CC(=O)O)C(=O)C2)CC1` [compound 37]: the IC50 in test [1] worked out at 7000 nM; at GPIIb/IIIa, 7.9 nM; in test [2], 520 nM.
As to `N=C(N)N1CCC(C(=O)NCC(=O)N2CCN(CC(=O)O)C(=O)[C@@H]2CC(=O)O)CC1` [compound 38], the IC50 in test [1] came out at 9600 nM; on GPIIb/IIIa it was 21 nM; in test [2], 1600 nM.
In the same order, the values of `N=C(N)c1ccc(C(=O)NCC(=O)N2CCN(CC(=O)O)C(=O)[C@@H]2CC(=O)O)cc1` [compound 39] are 165 nM, 1 nM and 110 nM.
On to `N=C(N)c1ccc(CC(=O)NCC(=O)N2CCN(CC(=O)O)C(=O)[C@@H]2CC(=O)O)cc1` [compound 45], for which the IC50 in test [1] amounted to 1600 nM; on GPIIb/IIIa it was 8.1 nM; in test [2] it was 1500 nM.
Regarding `NCCc1ccc(C(=O)NCC(=O)N2CCN(CC(=O)O)C(=O)[C@@H]2CC(=O)O)cc1` [compound 46], the results for the IC50 (in test [1]; at GPIIb/IIIa; in test [2]) were 130 nM, 2.5 nM and 230 nM, respectively.
For `NCc1ccc(C(=O)NCC(=O)N2CCN(CC(=O)O)C(=O)[C@@H]2CC(=O)O)cc1` [compound 47], the IC50 in test [2] was 4200 nM.
With `NCCCc1ccc(C(=O)NCC(=O)N2CCN(CC(=O)O)C(=O)[C@@H]2CC(=O)O)cc1` [compound 48], the IC50 at GPIIb/IIIa was 15 nM.
As to `N=C(N)Nc1ccc(C(=O)N2CCC[C@H]2C(=O)N2CCN(CC(=O)O)C(=O)[C@@H]2CC(=O)O)cc1` [compound 50], the IC50 is 345 nM in test [1] and 21 nM at GPIIb/IIIa.
Consider `CN(CC(=O)N1CCN(CC(=O)O)C(=O)[C@@H]1CC(=O)O)C(=O)c1ccc(NC(=N)N)cc1` [compound 51], for which the IC50 in test [1] came out at 370 nM; in test [2], 460 nM.
In the case of `N=C(N)c1ccc(C(=O)NCC(=O)N2CCN([C@@H](Cc3ccccc3)C(=O)O)C(=O)[C@@H]2CC(=O)O)cc1` [compound 54], the IC50 was determined as 4100 nM in test [1], 6.1 nM on GPIIb/IIIa and 660 nM in test [2].
Take `N=C(N)c1ccc(C(=O)NCC(=O)N2CCN(CC(=O)O)C(=O)C2)cc1` [compound 55]: the IC50 in test [1] was 210 nM; at GPIIb/IIIa it was 0.42 nM; in test [2], 94 nM.
For the molecule `COC(=O)CN1CCN(C(=O)CNC(=O)c2ccc(C(=N)N)cc2)[C@@H](CC(=O)O)C1=O` [compound 57], the IC50 amounted to 1750 nM in test [1], 20 nM on GPIIb/IIIa and 2600 nM in test [2].
As to `N=C(N)c1ccc(C(=O)NCC(=O)N2CCN(CC(=O)O)C(=O)[C@@H]2Cc2ccccc2)cc1` [compound 61], the 50% inhibitory concentration (IC50) in test [1] was determined as 160 nM; in test [2], 130 nM.
Take `CCC(C)[C@H]1C(=O)N(CC(=O)O)CCN1C(=O)CNC(=O)c1ccc(NC(=N)N)cc1` (stereo partly shown) [compound 65]: the figures for the concentration for half-maximal inhibition (IC50) (in test [1]; at GPIIb/IIIa) were 4600 nM and 98 nM, respectively.
For the molecule `COC(=O)CC[C@H]1C(=O)N(CC(=O)O)CCN1C(=O)CNC(=O)c1ccc(CCN(C)C)cc1` [compound 81], the IC50 in test [1] was 2300 nM; at GPIIb/IIIa, 37 nM.
